Patent publication US12281102B2, “Inhibitors of APOL1 and methods of using same” (Vertex Pharmaceuticals Incorporated, priority 2020, dated 2025)
pIC50: −log10 of the molar value. Read-outs that look alike come from different tables or passages of the source.

Molecular target: T1, G1 APOL1 (Homo sapiens, UniProt O14791, I384M/S342G)
T1 construct: expressed in transfected cells
T1 sequence (O14791 28-398 S342G/I384M): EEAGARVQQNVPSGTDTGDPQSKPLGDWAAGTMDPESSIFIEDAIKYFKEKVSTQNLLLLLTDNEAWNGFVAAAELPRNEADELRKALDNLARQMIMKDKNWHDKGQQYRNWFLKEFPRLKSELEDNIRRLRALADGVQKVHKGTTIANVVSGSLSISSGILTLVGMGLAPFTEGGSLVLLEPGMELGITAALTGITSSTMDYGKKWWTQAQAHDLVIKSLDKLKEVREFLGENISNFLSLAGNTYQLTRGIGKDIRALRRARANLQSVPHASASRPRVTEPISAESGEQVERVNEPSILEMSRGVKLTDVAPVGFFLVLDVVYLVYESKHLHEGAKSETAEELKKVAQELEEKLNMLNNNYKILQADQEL
Experiment: Acute APOL1 Thallium Assay with inducible stable clones of HEK 293 cells
Assay type: cell-based
Conditions: HEK 293 T-Rex inducible stable clone expressing G1 APOL1
Excerpt: Acute APOL1 Thallium Assay with Inducible Stable Clones of HEK 293 Cells
Apolipoprotein L1 (APOL1) proteins form potassium-permeable cation pores in the plasma membrane. APOL1 risk variants (G1 and G2) induce greater potassium flux than G0 in HEK293 cells. This assay exploits the permeability of thallium (T1+) through ligand-gated potassium channels. The dye produces a bright fluorescent signal upon binding to T1+ conducted through potassium channels. The intensity of the T1+ signal is proportional to the number of potassium channels in the open state. Therefore, it provides a functional indication of the potassium channel activities. During the initial dye-loading step, the T1+ indicator dye as an acetoxymethyl (AM) ester enters the cells through passive diffusion. Cytoplasm esterases cleave the AM ester and relieve its active thallium-sensitive form. The cells are then stimulated with T1+. The increase of fluorescence in the assay represents the influx of T1+ into the cell specifically through the potassium channel (i.e. through APOL1 pores), providing a functional measurement of potassium channel/pore activity. The Thallium assay is conducted with cells expressing G1 APOL1.
APOL1 Cell Line (HEK T-Rex Stable Inducible Cell Line)
• HEK T-Rex System • Tetracycline (Tet) inducible mammalian expression system. • Stably express the Tet repressor to regulate transcription. • Expression under the full-length CMV promoter. • APOL1 stable inducible cell line Clone used: G1 DC3.25 Tissue Culture Media Cell Culture Medium • DMEM+10% FBS+P/S+5 μg/mL blasticidin+1 μg/mL puromycin. • 500 mL DMEM+55 mL FBS+5 mL P/S+280 μL blasticidin S HCl (10 mg/mL)+56 μL puromycin (10 mg/mL). Cell Assay Medium • DMEM with 2% FBS+penicillin streptomycin. Reagents:
Instruments and Equipment • Nuaire cell culture hood, Cat. No. 540-600 • 37° C./5% CO2 incubator link to robotic arm, Liconic: STX110 • Molecular Devices FLIPR^Tetra High throughput cellular screening system, Cat. No. FT0324, Molecular Devices • ThermoFisher MultiDrop 384, Cat. No. 5840300 • Biotek Microfill, Cat. No. ASF1000A-4145 • BioRad TC10 cell counter, Cat. No. 145-0010 Assay Procedures Cells Scaled Up from Frozen Vials • APOL1 G1 3.25 (HEK293 T-Rex) frozen vials: 5 million cells per vial • Step 1, Day 1: Defrost frozen vial into T-225. • Step 2, Day 5: (when 85% confluent): Split one T-225 at 3×10^6 cells per flask. • Step 3, Day 8: Splits cells to set up for the assay plates as described below. Cell Culture
T-Rex APOL1 HEK cells are split twice per week to keep the confluence state below 85% of the culture flask surface area. Cells can be kept until passage 25.
• DMEM high glucose+10% FBS, +P/S, +5 μg/mL blasticidin, +1 μg/mL puromycin. • 500 mL DMEM, +55 mL FBS, +5 mL P/S, +280 μL blasticidin 10 mg/mL, +56 μL Puromycin 10 mg/mL. Assay Media • Opti-MEM reduced serum medium from Invitrogen. Day 1 Preparation of Cell Assay Plates • Culture medium is removed from the x cm^2 T-flask by aspiration. • The cell monolayer is rinsed with PBS 1× at room temperature. PBS is removed by aspiration. • Cells are trypsinized using Trypsin. • The flasks are incubated at room temperature for 2-3 minutes. • Complete DMEM medium is then added. Cell suspension is then transferred to a 50 mL Falcon polypropylene tube. • Cells are then counted using a BioRad TC10 cell counter and the required amount of cells are centrifuged at 1200 RPM for 5 minutes. Required amount is 1.3×10^6 cells/mL APOL1 T-Rex HEK cells. • The pellet is suspended in the assay medium. • Using the MultiDrop, add 20 μL to each well (corresponds to 26000 cells total per well) of a 384-well black, transparent, flat bottom Poly-D coated plate. • Tetracycline as prepared in the following section is added to the cells before plating to induce APOL1 expression. • Plates are left at room temperature for 20 to 30 minutes before incubation at 37° C. and 5% CO2. […]

[1] = read-out: Thallium Assay (IC50)

pIC50 [1] | pIC50 (Thallium Assay (IC50)) | SMILES
6.00 to 6.60 |  | CC(C)(C)OC(=O)NCC(=O)NC[C@H]1C[C@@H](c2c(-c3ccc(F)cc3)[nH]c3c(F)cc(F)cc32)C1 [Compound 212]
< 6.00 |  | O=S(=O)(NC[C@H]1C[C@H](c2c(-c3ccc(F)cc3)[nH]c3c(F)cc(F)cc32)C1)N[C@@H]1CCC[C@H]1O [Compound 348]
> 6.60 |  | O=C(NC[C@H]1C[C@H](c2c(-c3ccc(F)cc3)[nH]c3c(F)cc(F)cc32)C1)C1CCO1 (stereo partly shown) [Compound 192]
6.00 to 6.60 |  | CNCCC(=O)N[C@H]1C[C@@H](c2c(-c3ccc(F)cc3)[nH]c3c(F)cc(F)cc32)C1 [Compound 75]
< 6.00 |  | O=S(=O)(NC[C@H]1C[C@H](c2c(-c3ccc(F)cc3)[nH]c3c(F)cc(F)cc32)C1)N[C@@H]1CCC[C@@H]1O [Compound 357]
< 6.00 |  | CN1CCCC(CC(=O)NC[C@H]2C[C@@H](c3c(-c4ccc(F)cc4)[nH]c4c(F)cc(F)cc43)C2)C1 (stereo partly shown) [Compound 315]
< 6.00 |  | O=C1CC(NCC2CC(c3c(-c4ccc(F)cc4)[nH]c4c(F)cc(F)cc34)C2)CN1 (stereo not shown) [Compound 410]
< 6.00 |  | COCCC(=O)N[C@H]1C[C@@H](c2c(-c3ccc(F)cc3)[nH]c3c(F)cc(F)cc32)C1 [Compound 62]
< 6.00 |  | N#CCC(=O)NC[C@H]1C[C@@H](c2c(-c3ccc(F)cc3)[nH]c3c(F)cc(F)cc32)C1 [Compound 230]
< 6.00 |  | CCC(C)S(=O)(=O)N[C@H]1C[C@H](c2c(-c3ccc(F)cc3)[nH]c3c(F)cc(F)cc32)C1 (stereo partly shown) [Compound 152]
< 6.00 |  | CS(=O)(=O)NCC(=O)N[C@H]1C[C@H](c2c(-c3ccc(F)cc3)[nH]c3c(F)cc(F)cc32)C1 [Compound 107]
< 6.00 |  | O=C(N[C@H]1C[C@H](c2c(-c3ccc(F)cc3)[nH]c3c(F)cc(F)cc32)C1)OCc1ccccc1 [Compound 88]
< 6.00 |  | N[C@@H](C(=O)NC[C@H]1C[C@H](c2c(-c3ccc(F)cc3)[nH]c3c(F)cc(F)cc32)C1)C1CC1 [Compound 264]
< 6.00 |  | O=C1CC(C(=O)NC[C@H]2C[C@H](c3c(-c4ccc(F)cc4)[nH]c4c(F)cc(F)cc43)C2)C(=O)N1 (stereo partly shown) [Compound 287]
< 6.00 |  | CC1(C(=O)N[C@H]2C[C@H](c3c(-c4ccc(F)cc4)[nH]c4c(F)cc(F)cc43)C2)CCC(=O)NC1 (mixture of isomers) [Compound 97]
< 6.00 |  | CC[C@@H](N)C(=O)NC[C@H]1C[C@H](c2c(-c3ccc(F)cc3)[nH]c3c(F)cc(F)cc32)C1 [Compound 267]
6.00 to 6.60 |  | O=C(CCO)NC1CC(c2c(-c3ccc(F)cc3)[nH]c3c(F)cc(C(F)(F)F)cc23)C1 (mixture of isomers) [Compound 2, N-[3-[7-fluoro-2-(4-fluorophenyl)-5-(trifluoromethyl)-1H-indol-3-yl]cyclobutyl]-3-hydroxy-propanamide]
< 6.00 |  | CC(=O)Nc1ccn(C2CC(c3c(-c4ccc(F)cc4)[nH]c4c(F)cc(F)cc34)C2)n1 (stereo not shown) [Compound 19, N-[1-[3-[5,7-difluoro-2-(4-fluorophenyl)-1H-indol-3-yl]cyclobutyl]pyrazol-3-yl]acetamide]
 | > 6.60 | N[C@H]1C[C@@H](c2c(-c3ccc(F)cc3)[nH]c3c(F)cc(F)cc32)C1 [Compound 28, (1s,3s)-3-(5,7-difluoro-2-(4-fluorophenyl)-1H-indol-3-yl)cyclobutan-1-amine]
6.00 to 6.60 |  | NC1CC(c2c(-c3ccc(C4CC4)cc3)[nH]c3ccc(F)cc23)C1 (stereo not shown) [Compound 7, 3-[2-(4-cyclopropylphenyl)-5-fluoro-1H-indol-3-yl]cyclobutanamine]

pIC50 [1] | pIC50 (Thallium Assay (IC50)) | SMILES
< 6.00 |  | O=C1CC(C(=O)NC[C@H]2C[C@H](c3c(-c4ccc(F)cc4)[nH]c4c(F)cc(F)cc43)C2)CN1 (stereo partly shown) [Compound 273]
6.00 to 6.60 |  | OCC(O)CNCC1CC(c2c(-c3ccc(F)cc3)[nH]c3c(F)cc(F)cc23)C1 (stereo not shown) [Compound 385]
< 6.00 |  | O=C(NC1CC(Cc2c(-c3ccc(F)cc3)[nH]c3c(F)cc(F)cc23)C1)c1ccn[nH]1 (stereo not shown) [Compound 166]
< 6.00 |  | COC1(CC(=O)NC[C@H]2C[C@@H](c3c(-c4ccc(F)cc4)[nH]c4c(F)cc(F)cc43)C2)CCC1 [Compound 324]
6.00 to 6.60 |  | O=C(N[C@H]1C[C@@H](c2c(-c3ccc(F)cc3)[nH]c3c(F)cc(F)cc32)C1)c1cn[nH]c1 [Compound 73]
6.00 to 6.60 |  | O=C(NC[C@H]1C[C@H](c2c(-c3ccc(F)cc3)[nH]c3c(F)cc(F)cc32)C1)C1CC(F)(F)CN1 (stereo partly shown) [Compound 223]
6.00 to 6.60 |  | O=C(CC(=O)N1CCOCC1)N[C@H]1C[C@@H](c2c(-c3ccc(F)cc3)[nH]c3c(F)cc(F)cc32)C1 [Compound 56]
6.00 to 6.60 |  | CNCC(=O)N1CC(Cc2c(-c3ccc(F)cc3)[nH]c3c(F)cc(F)cc23)C1 [Compound 440]
6.00 to 6.60 |  | NCCNCC1CC(c2c(-c3ccc(F)cc3)[nH]c3c(F)cc(F)cc23)C1 (stereo not shown) [Compound 388]
6.00 to 6.60 |  | CC(C)S(=O)(=O)N[C@H]1C[C@H](c2c(-c3ccc(F)cc3)[nH]c3c(F)cc(F)cc32)C1 [Compound 149]
< 6.00 |  | O=C1NCCC1C(=O)N[C@H]1C[C@@H](c2c(-c3ccc(F)cc3)[nH]c3c(F)cc(F)cc32)C1 (stereo partly shown) [Compound 69]
< 6.00 |  | O=C(Cn1cnnc1)N[C@H]1C[C@@H](c2c(-c3ccc(F)cc3)[nH]c3c(F)cc(F)cc32)C1 [Compound 33]
< 6.00 |  | Cn1ccc(CC(=O)N[C@H]2C[C@@H](c3c(-c4ccc(F)cc4)[nH]c4c(F)cc(F)cc43)C2)n1 [Compound 41]
6.00 to 6.60 |  | NCC1CC(c2c(-c3ccc(F)cc3)[nH]c3c(F)cc(C(F)(F)F)cc23)C1 (stereo not shown) [Compound 178]
< 6.00 |  | CC(C)(C)OC(=O)N[C@@H](C(=O)NC[C@H]1C[C@H](c2c(-c3ccc(F)cc3)[nH]c3c(F)cc(F)cc32)C1)C1CC1 [Compound 277]
< 6.00 |  | O=C(CC1CC(F)(F)C1)N[C@H]1C[C@H](c2c(-c3ccc(F)cc3)[nH]c3c(F)cc(F)cc32)C1 [Compound 98]
< 6.00 |  | NC(=O)CNC(=O)C1CC(Cc2c(-c3ccc(F)cc3)[nH]c3c(F)cc(F)cc23)C1 (stereo not shown) [Compound 449, N-(2-amino-2-oxoethyl)-3-((5,7-difluoro-2-(4-fluorophenyl)-1H-indol-3-yl)methyl)cyclobutane-1-carboxamide]
> 6.60 |  | COCCC(=O)N[C@H]1C[C@H](c2c(-c3ccc(F)cc3)[nH]c3c(F)cc(F)cc32)C1 [Compound 125]
< 6.00 |  | O=C(CC1CC(=O)NC(=O)C1)NC[C@H]1C[C@@H](c2c(-c3ccc(F)cc3)[nH]c3c(F)cc(F)cc32)C1 [Compound 285]
6.00 to 6.60 |  | O=S(=O)(N[C@H]1C[C@H](c2c(-c3ccc(F)cc3)[nH]c3c(F)cc(F)cc32)C1)c1cn[nH]c1 [Compound 145, N-[(1r,3r)-3-[5,7-difluoro-2-(4-fluorophenyl)-1H-indol-3-yl]cyclobutyl]-1H-pyrazole-4-sulfonamide]
